Experimental data: patent publication US8008326B2, “4-benzyledene-piperidin derivatives” (Richter Gedeon Vegyeszeti Gyar Rt., priority 2004, dated 2011)
Read-outs that look alike come from different tables or passages of the source. Marks after values point to notes of the source that are not given here.

Legend:
[1] = test system: NMRI mice; test: Mouse formalin test, second phase, oral administration; format: in vivo; settings: 15 min before formalin, licking 20 to 25 min after injection
Experimental: Injection of diluted formalin into the hind paw of rats or mice is known to elicit a biphasic pain-related behaviour measured as time spent by licking/biting of the injured paw. The second phase is generally defined as pain related events detected in the 15-60 min. time interval after formalin injection, with peak activity at around 30 min. It is known that NMDA receptors are involved in the second phase of response to formalin injection and this behavioural response is sensitive to blockade of NMDA receptors [Dickenson, A. and Besson J.-M. (Editors): Chapter 1, pp. 6-7: Animal models of Analgesia; and Chapter 8, pp. 180-183. Mechanism of Central Hypersensitivity: Excitatory Amino Acid Mechanisms and Their Control—In Pharmacology of Pain. Springer-Verlag (Berlin) 1997.] Therefore, we used the second phase of formalin test to characterize the efficacy of compounds in vivo. Inhibition of the second phase of response is considered to indicate an analgesic effect against chemically-induced persistent pain [Hurker, S., et al.: Formalin Test in Mice, a Useful Technique for Evaluating Mild Analgesics, Journal of Neuroscience Methods, 14 (1985) 69-76.]
Male NMRI […] (20-25 g) were used. Prior to the experiment any solid food was withdrawn for approx. 16 hours but the animals had free access to 20% glucose solution. The animals were allowed 1 hour acclimatization period in a glass cylinder (cc. 15 cm in diameter), then moved to an identical cylinder with a mirror placed behind to facilitate observation. The test substances were suspended in 5% tween-80 (10 ml per kg body weight). and administered orally by gavage 15 min before the formalin injection (20 μl of 1% formalin in 0.9& saline injected subcutaneously into the dorsal surface of the right hindpaw). The time spent by licking and biting of the injected paw was measured from 20 to 25 min. after the formalin injection.

[2] = test system: NMRI mice; test: Spontaneous locomotor activity (LMA) in mice; format: in vivo, mouse; settings: oral
Experimental: Measurement of Spontaneous Locomotor Activity in Mice
Male NMRI mice weighing 20-22 g were used in the experiments.
Spontaneous locomotor activity was measured in a four-channel activity monitor. The apparatus consisted of acrylic cages (43 cm×43 cm×32 cm) equipped with 2×16 pairs of photocells along all the bottom axis of the cage. An additional array of photocells (16 pairs) was placed along two opposite sides of the cage at the height of 10 cm in order to detect rearing responses.
Experimental groups consisted of 10 animals. Thirty minutes after the oral administration of the test compound or vehicle (tween-80), the animals were individually placed in one of four cages for one hour. Horizontal and vertical movements were determined as the number of beam interruptions for one hour at 15 ruin intervals.
Mean±SE of horizontal activity data of each group was calculated then percentual changes compared to the control (vehicle-treated) group were determined. A compound was considered to cause locomotor stimulation when its effect exceeded 50% increase in beam interruptions. Consequently, doses defined as free from stimulatory action (LMAfree) produced less than 50% increase.

[3] = cited from earlier work
[4] = molecular target: T1, NR2B containing NMDA receptors (rat cortical cells) (Rattus norvegicus, UniProt P35439+Q00960); test: NMDA antagonist potency by intracellular calcium measurement with plate reader fluorimeter in rat cortical cell culture; format: cell-based; settings: fluorimetric method
T1 construct: The cells at this in vitro age are believed to express predominantly NR2B containing NMDA receptors; endogenous in cells; host or cells: primary neocortical cell culture from 17 day old rat embryos, 3-7 days in vitro
Experimental: Assessment of NMDA Antagonist Potency In Vitro by Measurement of Intracellular Calcium Concentration with a Plate Reader Fluorimeter in Rat Cortical Cell Culture
The cultures were used for the intracellular calcium measurements after 3-7 days in vitro. […] Before the measurement the cells were loaded with a fluorescent Ca^2+-sensitive dye, Fluo-4/AM (2 μM). To stop loading the cells were washed twice with the solution used for the measurement (140 mM NaCl, 5 mM KCl, 2 mM CaCl2, 5 mM HEPES, 5 mM HEPES-Na, 20 mM glucose, 10 μM glycine, pH=7.4). After washing, the test compounds were added to the cells in the above solution (90 μl well). Intracellular calcium measurements were carried out with a plate reader fluorimeter: elevation of Fluo-4-fluorescence and so, intracellular calcium concentration was induced by application of 40 μM NMDA. Inhibitory potency of the test compounds was assessed by measuring the reduction in the calcium elevation in the presence of different concentrations of the compounds.
(§1) Dose-response curves and IC50-values were calculated using data derived from at least three independent experiments. Inhibitory potency of a compound at a single concentration point was expressed as percent inhibition of the NMDA response. Sigmoidal concentration-inhibition curves were fit to the data and IC50 values were determined as the concentration that produces half of the maximal inhibition caused by the compound.

[5] = molecular target: T2, recombinant NMDA receptors NR1/NR2A (HEK293 cells) (Homo sapiens, UniProt Q12879); test: Inhibition of NMDA evoked cytosolic calcium elevation in HEK293 cells transfected with NR1/NR2A; format: cell-based
T2 construct: expressed in transfected cells
Experimental: Expression of Recombinant NMDA Receptors
(1997); Neurochemistry International, 43, 19-29. (2003)]. […] Compounds were tested for their inhibitory action on NMDA evoked cytosolic calcium elevations in fluorescent calcium measurements. Studies were performed 48-72 h after addition of the inducing agent. Ketamine (500 μM) was also present during the induction in order to prevent cytotoxicity.
as §1

[6] = other group, Neuropharmacology 38 (1999)
[7] = 40 μM NMDA, read-out: Rat cortical cells (NR2B) appr. IC50
[8] = J. Pharmacol. Exp. Ther. 302 (2002), Behav. Pharmacol. 14 (2003)

T1 sequence (Q00960 27-1482, other chains not shown): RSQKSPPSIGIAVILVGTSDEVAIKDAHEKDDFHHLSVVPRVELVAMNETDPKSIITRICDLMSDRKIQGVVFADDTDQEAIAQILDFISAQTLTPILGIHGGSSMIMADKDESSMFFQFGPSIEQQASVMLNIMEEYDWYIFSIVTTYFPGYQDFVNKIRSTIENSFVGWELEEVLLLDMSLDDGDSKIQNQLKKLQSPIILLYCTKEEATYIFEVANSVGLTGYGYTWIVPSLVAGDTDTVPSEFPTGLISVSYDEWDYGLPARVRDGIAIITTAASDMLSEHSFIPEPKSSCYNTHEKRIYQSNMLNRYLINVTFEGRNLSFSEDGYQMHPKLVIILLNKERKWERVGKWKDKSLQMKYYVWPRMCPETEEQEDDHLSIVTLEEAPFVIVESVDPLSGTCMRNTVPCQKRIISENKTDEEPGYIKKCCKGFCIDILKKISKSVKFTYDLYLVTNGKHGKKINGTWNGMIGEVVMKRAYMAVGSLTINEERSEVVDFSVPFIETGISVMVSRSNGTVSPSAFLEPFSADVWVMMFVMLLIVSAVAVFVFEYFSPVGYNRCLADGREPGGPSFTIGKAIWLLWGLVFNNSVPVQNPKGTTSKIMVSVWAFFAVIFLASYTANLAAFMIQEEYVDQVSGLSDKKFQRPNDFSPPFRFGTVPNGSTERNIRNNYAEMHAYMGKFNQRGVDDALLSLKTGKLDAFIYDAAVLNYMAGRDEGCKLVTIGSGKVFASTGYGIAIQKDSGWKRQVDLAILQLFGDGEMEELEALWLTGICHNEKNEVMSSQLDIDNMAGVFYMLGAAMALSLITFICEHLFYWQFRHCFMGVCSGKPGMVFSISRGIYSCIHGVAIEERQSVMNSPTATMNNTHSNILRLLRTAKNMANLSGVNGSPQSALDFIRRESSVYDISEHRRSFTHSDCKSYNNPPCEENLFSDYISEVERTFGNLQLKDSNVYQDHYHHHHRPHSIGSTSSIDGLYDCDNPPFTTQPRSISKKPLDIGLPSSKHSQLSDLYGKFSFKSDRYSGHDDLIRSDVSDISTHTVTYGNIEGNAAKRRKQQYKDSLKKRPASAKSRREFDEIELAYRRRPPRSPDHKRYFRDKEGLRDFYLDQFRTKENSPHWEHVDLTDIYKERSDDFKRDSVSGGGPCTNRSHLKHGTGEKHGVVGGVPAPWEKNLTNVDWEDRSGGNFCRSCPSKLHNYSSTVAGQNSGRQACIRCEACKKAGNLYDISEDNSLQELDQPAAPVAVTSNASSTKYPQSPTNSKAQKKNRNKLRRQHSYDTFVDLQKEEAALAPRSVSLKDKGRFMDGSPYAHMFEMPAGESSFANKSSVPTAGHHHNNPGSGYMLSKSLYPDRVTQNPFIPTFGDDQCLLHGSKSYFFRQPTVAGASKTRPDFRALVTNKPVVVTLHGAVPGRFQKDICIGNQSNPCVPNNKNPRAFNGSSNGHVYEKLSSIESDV
T2 sequence (Q12879 23-1464, other chains not shown): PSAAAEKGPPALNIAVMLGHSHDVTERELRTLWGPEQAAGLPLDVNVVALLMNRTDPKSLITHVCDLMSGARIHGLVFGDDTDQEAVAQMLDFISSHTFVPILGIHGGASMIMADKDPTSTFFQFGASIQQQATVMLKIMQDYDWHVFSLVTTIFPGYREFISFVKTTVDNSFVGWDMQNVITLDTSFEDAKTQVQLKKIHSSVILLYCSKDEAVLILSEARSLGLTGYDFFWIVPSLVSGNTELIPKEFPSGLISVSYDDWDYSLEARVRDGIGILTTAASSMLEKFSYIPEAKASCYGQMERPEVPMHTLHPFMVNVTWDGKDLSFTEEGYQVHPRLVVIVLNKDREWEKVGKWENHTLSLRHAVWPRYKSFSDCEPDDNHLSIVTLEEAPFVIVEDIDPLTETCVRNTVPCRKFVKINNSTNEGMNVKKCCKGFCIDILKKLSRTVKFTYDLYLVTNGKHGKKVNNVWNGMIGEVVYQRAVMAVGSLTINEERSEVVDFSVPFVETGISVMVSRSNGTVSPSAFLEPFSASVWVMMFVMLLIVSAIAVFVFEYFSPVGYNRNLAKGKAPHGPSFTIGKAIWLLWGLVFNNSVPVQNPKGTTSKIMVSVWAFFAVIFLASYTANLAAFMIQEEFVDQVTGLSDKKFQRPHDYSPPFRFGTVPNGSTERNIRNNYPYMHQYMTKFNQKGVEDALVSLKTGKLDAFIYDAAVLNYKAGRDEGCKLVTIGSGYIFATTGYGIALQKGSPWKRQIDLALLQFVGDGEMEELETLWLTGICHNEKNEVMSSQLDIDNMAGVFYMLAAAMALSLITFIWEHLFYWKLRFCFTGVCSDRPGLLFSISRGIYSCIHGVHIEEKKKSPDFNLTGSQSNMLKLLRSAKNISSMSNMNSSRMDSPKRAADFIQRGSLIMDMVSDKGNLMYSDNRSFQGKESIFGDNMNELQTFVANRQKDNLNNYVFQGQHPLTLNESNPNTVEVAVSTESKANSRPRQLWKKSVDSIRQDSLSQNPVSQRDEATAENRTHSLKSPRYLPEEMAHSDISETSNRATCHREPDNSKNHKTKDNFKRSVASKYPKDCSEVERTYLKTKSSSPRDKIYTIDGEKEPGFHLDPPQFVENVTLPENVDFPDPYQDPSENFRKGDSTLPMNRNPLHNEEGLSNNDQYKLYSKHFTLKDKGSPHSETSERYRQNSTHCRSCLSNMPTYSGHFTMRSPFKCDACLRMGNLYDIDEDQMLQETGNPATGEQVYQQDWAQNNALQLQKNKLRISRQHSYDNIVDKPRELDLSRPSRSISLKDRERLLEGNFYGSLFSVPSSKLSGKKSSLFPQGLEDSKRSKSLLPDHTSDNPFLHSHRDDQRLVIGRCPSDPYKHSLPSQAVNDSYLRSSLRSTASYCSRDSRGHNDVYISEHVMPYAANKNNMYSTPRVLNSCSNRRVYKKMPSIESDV

O=C(Nc1ccc2[nH]c(=O)oc2c1)C(=O)N1CCC(Cc2ccccc2)CC1 [A, 2-(4-benzyl-piperidin-1-yl)-2-oxo-N-(2-oxo-2,3-dihydro-benzoxazol-6-yl)-acetamide]
ED50 [1]: 0.85 mg/kg | LMA % increase ([2]; dose 1 mg/kg): 34* % | LMA % increase ([2]; dose 3 mg/kg): 62%

Cc1ccc(CC2CCN(C(=O)C(=O)Nc3ccc4c(c3)CC(=O)N4)CC2)cc1 [B, 2-[4-[4-methyl-benzyl)-piperidin-1-yl]-2-oxo-N-(2-oxo-2,3-dihydro-1H-indol-5-yl)-acetamide]
ED50 [1]: 0.48 mg/kg | LMA % increase ([2]; dose 3.75 mg/kg): 72% | LMA % increase ([2]; dose 7.5 mg/kg): 141%

O=c1[nH]c2ccc([S+]([O-])CCN3CCC(Cc4ccc(F)cc4)CC3)cc2o1 (stereo not shown) [CI-1041, 6-{2-[4-(4-fluoro-benzyl)-piperidin-1-yl]-ethanesulfinyl}-3H-benzooxazol-2-one]
ED50 [1]: 2.4 mg/kg | LMA % inc. ([2]; dose 10 mg/kg): 137%

C[C@@H]([C@@H](O)c1ccc(O)cc1)N1CCC(O)(c2ccccc2)CC1 [CP-101,606, (1S,2S)-1-(4-hydroxyphenyl)-2-(4-hydroxy-4-phenylpiperidine-1-yl)-1-propanol]
effect on locomotor activity [3, 6]: no such effect was observed | locomotor stimulating effect ([3]; up to 56 mg/kg s.c. and 100 mg/kg i.p., Soc. Neurosc. Abstr. 21 (1995)): Lack of locomotor stimulating effect | ED50 [1]: > 20 mg/kg

O=C(Nc1ccc2[nH]c(=O)oc2c1)C(=O)N1CCC(=Cc2ccccc2)CC1 [Compound 1, 2-(4-Benzylidene-piperidine-1-yl)-2-oxo-N-(2-oxo-2,3-dihydro-benzooxazol-6-yl)-acetamide]
IC50 [4, 7]: < 0.05 µM | ED50 [1]: 1 mg/kg | inhibition at 15 µM ([5]; HEK293): < 30% | LMA % increase ([2]; dose 60 mg/kg): 35* % | LMA % increase ([2]; dose 120 mg/kg): 69%

Cn1c(=O)[nH]c2ccc(NC(=O)C(=O)N3CCC(=Cc4ccccc4)CC3)cc21 [Compound 3]
IC50 [4, 7]: 0.05 to 0.5 µM

O=C(Nc1ccc2[nH]c(=O)sc2c1)C(=O)N1CCC(=Cc2ccccc2)CC1 [Compound 5]
IC50 [4, 7]: < 0.05 µM | inhibition at 15 µM ([5]; HEK293): < 30%

O=C(Nc1ccc2[nH]c(=S)oc2c1)C(=O)N1CCC(=Cc2ccccc2)CC1 [Compound 6]
IC50 [4, 7]: 0.05 to 0.5 µM

O=C1COc2cc(NC(=O)C(=O)N3CCC(=Cc4ccccc4)CC3)ccc2N1 [Compound 7]
IC50 [4, 7]: 0.5 to 1 µM

CS(=O)(=O)Nc1ccc(NC(=O)C(=O)N2CCC(=Cc3ccccc3)CC2)cc1 [Compound 10]
IC50 [4, 7]: 0.05 to 0.5 µM

O=C(Nc1ccc2[nH]c(=O)oc2c1)C(=O)N1CCC(=Cc2ccc(Cl)cc2)CC1 [Compound 11]
IC50 [4, 7]: < 0.05 µM

O=C(Nc1ccc2[nH]c(=O)[nH]c2c1)C(=O)N1CCC(=Cc2ccc(Cl)cc2)CC1 [Compound 12]
IC50 [4, 7]: < 0.05 µM

Cn1c(=O)[nH]c2ccc(NC(=O)C(=O)N3CCC(=Cc4ccc(Cl)cc4)CC3)cc21 [Compound 13]
IC50 [4, 7]: 0.05 to 0.5 µM

O=C1Cc2cc(NC(=O)C(=O)N3CCC(=Cc4ccc(Cl)cc4)CC3)ccc2N1 [Compound 14]
IC50 [4, 7]: 0.05 to 0.5 µM

O=C(Nc1ccc2[nH]c(=O)sc2c1)C(=O)N1CCC(=Cc2ccc(Cl)cc2)CC1 [Compound 15]
IC50 [4, 7]: < 0.05 µM

O=C(Nc1ccc2[nH]c(=S)oc2c1)C(=O)N1CCC(=Cc2ccc(Cl)cc2)CC1 [Compound 16]
IC50 [4, 7]: 0.05 to 0.5 µM

O=C1COc2cc(NC(=O)C(=O)N3CCC(=Cc4ccc(Cl)cc4)CC3)ccc2N1 [Compound 17]
IC50 [4, 7]: 0.5 to 1 µM

CS(=O)(=O)Nc1ccc(NC(=O)C(=O)N2CCC(=Cc3ccc(Cl)cc3)CC2)cc1 [Compound 20]
IC50 [4, 7]: 0.05 to 0.5 µM

Cc1ccc(C=C2CCN(C(=O)C(=O)Nc3ccc4[nH]c(=O)[nH]c4c3)CC2)cc1 [Compound 22]
IC50 [4, 7]: < 0.05 µM | inhibition at 15 µM ([5]; HEK293): < 30%

Cc1ccc(C=C2CCN(C(=O)C(=O)Nc3ccc4[nH]c(=O)n(C)c4c3)CC2)cc1 [Compound 23]
IC50 [4, 7]: 0.05 to 0.5 µM

Cc1ccc(C=C2CCN(C(=O)C(=O)Nc3ccc4[nH]c(=O)sc4c3)CC2)cc1 [Compound 25]
IC50 [4, 7]: < 0.05 µM

Cc1ccc(C=C2CCN(C(=O)C(=O)Nc3ccc4[nH]c(=S)oc4c3)CC2)cc1 [Compound 26]
IC50 [4, 7]: 0.05 to 0.5 µM

Cc1ccc(C=C2CCN(C(=O)C(=O)Nc3ccc4c(c3)OCC(=O)N4)CC2)cc1 [Compound 27]
IC50 [4, 7]: 0.05 to 0.5 µM

Cc1ccc(C=C2CCN(C(=O)C(=O)Nc3ccc(NS(C)(=O)=O)cc3)CC2)cc1 [Compound 30]
IC50 [4, 7]: 0.05 to 0.5 µM

COc1ccc(C=C2CCN(C(=O)C(=O)Nc3ccc4[nH]c(=O)[nH]c4c3)CC2)cc1 [Compound 32]
IC50 [4, 7]: < 0.05 µM | inhibition at 15 µM ([5]; HEK293): < 30%

COc1ccc(C=C2CCN(C(=O)C(=O)Nc3ccc4[nH]c(=O)n(C)c4c3)CC2)cc1 [Compound 33]
IC50 [4, 7]: 0.05 to 0.5 µM

COc1ccc(C=C2CCN(C(=O)C(=O)Nc3ccc(NS(C)(=O)=O)cc3)CC2)cc1 [Compound 40]
IC50 [4, 7]: < 0.05 µM | inhibition at 15 µM ([5]; HEK293): < 30%

O=C(Nc1ccc2[nH]c(=O)oc2c1)C(=O)N1CCC(=Cc2ccc(F)cc2)CC1 [Compound 41]
IC50 [4, 7]: < 0.05 µM | inhibition at 15 µM ([5]; HEK293): < 30%

O=C1Cc2cc(NC(=O)C(=O)N3CCC(=Cc4ccc(F)cc4)CC3)ccc2N1 [Compound 42]
IC50 [4, 7]: 0.5 to 1 µM

O=C(CCN1CCC(Cc2ccc(F)cc2)CC1)c1ccc2[nH]c(=O)oc2c1 [EMD 95885, reference compound]
IC50 ([4]; reference compounds, read-out: rat cortical cells IC50): 0.035 µM | NR1-3/NR2A % inhibition at 10 μM ([5]; 10 μM): 0.1%

C[C@]12N[C@H](Cc3ccccc31)c1ccccc12 [MK-801, (+)-5-Methyl-10,11-dihydro-5H-dibenzo[a,d]cyclohepten-5,10-imine]
ED50 [1]: 0.15 mg/kg | LMA % inc. ([2]; dose 0.1 mg/kg): 114% | LMA % inc. ([2]; dose 0.3 mg/kg): 217%

C[C@@H](CN1CCC(Cc2ccccc2)CC1)[C@@H](O)c1ccc(O)cc1 [Ro 25.6981, R—(R*,S*)-1-(4-hydroxyphenyl)-2-methyl-3-[4-(phenylmethyl)piperidine-1-yl]-1-propanol]
effect on locomotor activity [3, 8]: increase locomotor activity | effect on locomotor activity [3, 6]: no such effect was observed | ED50 [1]: > 20 mg/kg | inhibition at 10 µM ([5]; HEK293, read-out: NR1-3/NR2A % inhibition at 10 μM): 1%

Cc1ccc(CC2(O)CCN(CCOc3ccc(O)cc3)CC2)cc1 [Ro 63-1908]
effect on locomotor activity [3, 8]: increase locomotor activity
